Source: publication PMC9995496, “A screen for MeCP2-TBL1 interaction inhibitors using a luminescence-based assay” (Scientific Reports, 2023)
Counter-ions that a name gives are not always drawn.

These compounds were tested on PRKACA-PRKAR2A interaction (SmBiT-PRKACA / LgBiT-PRKAR2A), protein kinase A. Conditions: 0.5 h, 20 µM; inhibitor.
Set-up: NanoLuc complementation counter-screen in cell extract, PRKACA with PRKAR2A, loss of luminescence, detects NanoLuc interference

| Compound | Inh (PKA) |
| --- | --- |
| CN(C)NC(=O)CCC(=O)O [UM0056235:02, Daminozide] | 2.677% |

Same assay, conditions: counter-screen for NanoLuc interference, 0.5 h, 20 µM, inhibitor, Inh (PKA)

| Compound | Inh (PKA) |
| --- | --- |
| COC(=O)N[C@H](C(=O)N[C@@H](Cc1ccccc1)[C@@H](O)CN(Cc1ccc(-c2ccccn2)cc1)NC(=O)[C@@H](NC(=O)OC)C(C)(C)C)C(C)(C)C [UM0141677:01, Atazanavir sulfate (BMS-232632-05)] | 2.404% |
| CCN(C)C(=O)Oc1cccc([C@H](C)N(C)C)c1 [UM0142069:01, Rivastigmine Tartrate] | 1.4% |
| CN1CCN(c2ccc3nc(-c4c(N)c5c(F)cccc5[nH]c4=O)[nH]c3c2)CC1 [UM0142698:01, Dovitinib (TKI258) Lactate] | 21.22% |
| O=C(/C=C/c1cccnc1)NCCCCC1CCN(C(=O)c2ccccc2)CC1 [UM0142102:01, FK 866 hydrochloride] | 0.5645% |
| CC(C)(C)c1nc(-c2cccc(NS(=O)(=O)c3c(F)cccc3F)c2F)c(-c2ccnc(N)n2)s1 [UM0142241:01, Dabrafenib (GSK2118436)] | 30.14% |

Same assay, conditions: counter-screen for NanoLuc interference; 0.5 h, 20 µM; inhibitor

| Compound | Inh (PKA) |
| --- | --- |
| CCOc1ccc(Oc2ccc(OCc3cc(F)ccc3F)cc2)c(N)c1 [UM0141627:01, SEA0400] | 3.449% |
| COc1cc2ncnc(Nc3cccc(Cl)c3)c2cc1OC [UM0044591:06, AG-1478] | 16.45% |
| CCN(CC)C(=O)/C(C#N)=C/c1cc(O)c(O)c([N+](=O)[O-])c1 [UM0141744:01, Entacapone] | 34.9% |
| COc1ccc(C[C@@H]2c3cc(OC)c(OC)cc3CC[N@+]2(C)CCC(=O)OCCCCCOC(=O)CC[N@@+]2(C)CCc3cc(OC)c(OC)cc3[C@H]2Cc2ccc(OC)c(OC)c2)cc1OC [UM0142215:01, Cisatracurium Besylate] | 2.146% |
| OC[C@H]1NC[C@H](O)[C@@H](O)[C@@H]1O [UM0142849:01, 1-Deoxynojirimycin] | 1.08% |
| O=C(O)c1cc(O)c(O)c(O)c1 [UM0120666:03, Gallic acid] | -0.4526% |
| CC(=O)/N=c1/sc(S(N)(=O)=O)nn1C [UM0132958:02, Methazolamide] | 0.8823% |
| N=C(N)NN [UM0142771:01, Aminoguanidine hydrochloride] | 0.824% |
| CN1CCN(c2ccc(Nc3cc(-c4cccc(-n5ccc6cc(C7CC7)cc(F)c6c5=O)c4CO)cn(C)c3=O)nc2)CC1 [UM0142104:01, RN486] | 0.8611% |
| C=CC(=O)N1C/C(=C\c2ccc([N+](=O)[O-])cc2)C(=O)/C(=C/c2ccc([N+](=O)[O-])cc2)C1 [UM0139980:02, NSC 687852 (b-AP15)] | 14.65% |
| N#Cc1ccnc(N2C(=O)CC[C@H]2C(=O)N(c2cncc(F)c2)[C@H](C(=O)NC2CC(F)(F)C2)c2ccccc2Cl)c1 [UM0139433:02, AG-120] | 2.094% |
| COc1ccc2c(c1)[nH]c1c(C)nccc12 [UM0118303:03, Harmine hydrochloride] | 2.69% |
| CC1(C)Cc2c(-c3ccccc3)c(-c3ccc(Cl)cc3)c(CC(=O)O)n2C1 [UM0142263:01, Licofelone] | 28.18% |
| CC(C)C[C@H](NC(=O)CNC(=O)c1cc(Cl)ccc1Cl)B(O)O [UM0141663:01, MLN2238] | 0.9496% |
| CC(=O)O/N=C1\C(=O)N(Cc2cc(Cl)ccc2Cl)c2ccc(Cl)cc21 [UM0141658:01, LDN 57444] | 84.34% |
| CN(C/C=C/C#CC(C)(C)C)Cc1cccc2ccccc12 [UM0133235:02, Terbinafine HCl] | 7.743% |
| Nc1ccccc1NC(=O)CCCCCCC(=O)Nc1ccccc1 [UM0142867:01, BML-210(CAY10433)] | 8.004% |
| CC(C)NC(=O)COc1cccc(-c2nc(Nc3ccc4[nH]ncc4c3)c3ccccc3n2)c1 [UM0141632:01, SLx-2119] | 49.23% |
| O=C1NC(=O)C(=Cc2ccc(-c3ccc(F)cc3)o2)S1 (stereo in doubt) [UM0142434:01, CAY10505] | 43.9% |
| COc1cc2c(cc1OC)CC(=O)N(CCCN(C)C[C@H]1Cc3cc(OC)c(OC)cc31)CC2 [UM0142218:01, Ivabradine HCl] | -0.5336% |
| O=C1NC(=O)/C(=C\c2ccc3nccnc3c2)S1 [UM0141873:01, AS-605240] | 0.3149% |

| Compound | Inh (PKA) |
| --- | --- |
| Nc1ccncc1 [UM0119500:03, 4-Aminopyridine] | 0.4521% |
| COc1cccc2c1c(O)c(C(=O)N(C)c1ccc(C(F)(F)F)cc1)c(=O)n2C [UM0141635:01, Tasquinimod] | 2.103% |
| CN([C@@H](Cc1ccc(OS(=O)(=O)c2cccc3cnccc23)cc1)C(=O)N1CCN(c2ccccc2)CC1)S(=O)(=O)c1cccc2cnccc12 [UM0141935:01, KN-62] | 9.099% |
| CO[C@H]1/C=C/O[C@@]2(C)Oc3c(C)c(O)c4c(O)c(c5c(nc6cc(C)ccn65)c4c3C2=O)NC(=O)/C(C)=C\C=C\[C@H](C)[C@H](O)[C@@H](C)[C@@H](O)[C@@H](C)[C@H](OC(C)=O)[C@@H]1C [UM0142068:01, Rifaximin (Xifaxan)] | 35.34% |
| CC[N+](C)(C)c1cccc(O)c1 [UM0118243:03, Edrophonium (chloride)] | -0.559% |
| C=CC(=O)Nc1cccc(Sc2nc(Nc3ccc(N4CCN(C)CC4)cc3)ncc2Cl)c1 [UM0141398:01, WZ8040] | 37.33% |
| CC(C)(C#N)c1ccc(N2C(=O)OCc3cnc4ccc(-c5cnc6ccccc6c5)cc4c32)cc1 [UM0135469:02, ETP-46464] | 11.28% |
| O=C(c1ccc(Cl)cc1)N(Cc1ccccc1)C1CCCCC1 [UM0142831:01, FPS-ZM1] | 22.08% |
| C#CCN(C)CCCOc1ccc(Cl)cc1Cl [UM0118650:03, Clorgyline (hydrochloride)] | 10.49% |
| CCC(CC)(NC(=O)C(C)C)C(=O)N[C@@H](CCCN=C(N)N)C(=O)NC1(C(=O)NC(c2ccc(F)cc2)c2ccc(F)cc2)CCCC1 [UM0142313:01, MM-102] | 12.23% |
| Cc1[nH]c(=O)c(C#N)cc1-c1ccncc1 [UM0133819:02, Milrinone] | -0.01503% |
| COC(=O)Nc1nc2cc(C(=O)c3ccccc3)ccc2[nH]1 [UM0118348:03, Mebendazole] | 8.731% |
| COc1ccc2[nH]cc(CCNC(C)=O)c2c1 [UM0118349:03, Melatonin] | -1.159% |
| CN1CCN(c2ccc(C(=O)Nc3n[nH]c4ccc(Cc5cc(F)cc(F)c5)cc34)c(NC3CCOCC3)c2)CC1 [UM0142673:01, Entrectinib] | 20.65% |
| COc1ccc(CNC(=O)Nc2ncc([N+](=O)[O-])s2)cc1 [UM0127858:02, AR-A014418] | 66.01% |
| C/C=C1\NC(=O)[C@H]2CSSCC/C=C/[C@H](CC(=O)N[C@H](C(C)C)C(=O)N2)OC(=O)[C@H](C(C)C)NC1=O [UM0141931:01, Romidepsin (FK228, depsipeptide)] | 2.202% |
| CCOC(=O)c1ccc(OC(=O)CCCCCNC(=N)N)cc1 [UM0119043:03, Gabexate mesylate] | 2.691% |
| C/C(=C\C(=O)Nc1ccccc1C(=O)O)c1ccc2ccccc2c1 [UM0138522:02, BIBR 1532] | 77.2% |
| COc1ccc(S(=O)(=O)Nc2cccnc2Nc2ccc(O)cc2)cc1 [UM0141402:01, ABT-751 (E7010)] | 8.683% |
| CC(C)c1cc(C(C)C)c(CC(=O)NS(=O)(=O)Oc2c(C(C)C)cccc2C(C)C)c(C(C)C)c1 [UM0141778:01, Avasimibe] | 69.24% |
